Experimental data reported in PubChem BioAssay AID1963964 (Molecular Pharmacology Branch, DTP, NCI, 2024).

System: 997726-040-R-J2-PDC tumor spheroids, viability
Assay: Anticancer human tumor 997726-040-R-J2-PDC patient-derived squamous cell lung carcinoma cell line growth inhibition [PI3K]
Conditions: spheroids with HUVEC and MSC; for IC50: curve of first compound; for viability, T/C: stronger effect = lower value; active means viability on the fitted dose curve at most 10% of control; inactive means the rest
Summary of the method: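 Spheroid viability read-out. Co-cultures contained the tumor line plus HUVEC and human MSCs. Each agent was paired with a PI3K inhibitor (inavolisib, alpelisib, duvelisib, copanlisib) across half-log dilutions starting at clinical Cmax, or at 10 microM when Cmax was unknown.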

[1] = second compound 0.00316 µM, first compound 0.0316 µM
[2] = second compound 0.00316 µM, first compound 0.1 µM
[3] = second compound 0.01 µM, first compound 0.0316 µM
[4] = second compound 0.01 µM, first compound 0.1 µM
[5] = second compound 0.0316 µM, first compound 0.0316 µM
[6] = second compound 0.0316 µM, first compound 0.1 µM
[7] = second compound 0.1 µM, first compound 0.0316 µM
[8] = second compound 0.1 µM, first compound 0.1 µM
[9] = second compound 0.316 µM, first compound 0.0316 µM
[10] = second compound 0.316 µM, first compound 0.1 µM
[11] = second compound 1 µM, first compound 0.0316 µM
[12] = second compound 1 µM, first compound 0.1 µM
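Further: spheroids exposed to compounds for seven days before readout.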

Cn1ncnc1[C@H]1c2n[nH]c(=O)c3cc(F)cc(c23)N[C@@H]1c1ccc(F)cc1 + COc1c(OCCCN2CCOCC2)ccc2c3n(c(=NC(=O)c4cnc(N)nc4)nc12)CCN3
> 0.1 µM: IC50 (second compound 0.00316 µM) | IC50 (second compound 0.01 µM)
< 0.000316 µM: IC50 (second compound 0.0316 µM) | IC50 (second compound 0.1 µM) | IC50 (second compound 0.316 µM) | IC50 (second compound 1 µM)
inactive: viability, T/C (second compound 0.00316 µM, first compound 0.000316 µM) 76.4% | viability, T/C (second compound 0.00316 µM, first compound 0.001 µM) 77% | viability, T/C (second compound 0.00316 µM, first compound 0.00316 µM) 75.6% | viability, T/C (second compound 0.00316 µM, first compound 0.01 µM) 82.9% | viability, T/C [1] 77.6% | viability, T/C [2] 70.5% | viability, T/C (second compound 0.01 µM, first compound 0.000316 µM) 52% | viability, T/C (second compound 0.01 µM, first compound 0.001 µM) 56.6% | viability, T/C (second compound 0.01 µM, first compound 0.00316 µM) 61.1% | viability, T/C (second compound 0.01 µM, first compound 0.01 µM) 54.8% | viability, T/C [3] 64.2% | viability, T/C [4] 58.1% | viability, T/C (second compound 0.0316 µM, first compound 0.000316 µM) 33.7% | viability, T/C (second compound 0.0316 µM, first compound 0.001 µM) 35.3% | viability, T/C (second compound 0.0316 µM, first compound 0.00316 µM) 33.7% | viability, T/C (second compound 0.0316 µM, first compound 0.01 µM) 37.1% | viability, T/C [5] 34.1% | viability, T/C [6] 36.5% | viability, T/C (second compound 0.1 µM, first compound 0.000316 µM) 25.1% | viability, T/C (second compound 0.1 µM, first compound 0.001 µM) 22.2% | viability, T/C (second compound 0.1 µM, first compound 0.00316 µM) 26.5% | viability, T/C (second compound 0.1 µM, first compound 0.01 µM) 23.1% | viability, T/C [7] 23.2% | viability, T/C [8] 22.6%
active: viability, T/C (second compound 0.316 µM, first compound 0.000316 µM) 5.23% | viability, T/C (second compound 0.316 µM, first compound 0.001 µM) 5.9% | viability, T/C (second compound 0.316 µM, first compound 0.00316 µM) 5.66% | viability, T/C (second compound 0.316 µM, first compound 0.01 µM) 5.44% | viability, T/C [9] 5.95% | viability, T/C [10] 5.09% | viability, T/C (second compound 1 µM, first compound 0.000316 µM) 1.25% | viability, T/C (second compound 1 µM, first compound 0.001 µM) 1.22% | viability, T/C (second compound 1 µM, first compound 0.00316 µM) 1.38% | viability, T/C (second compound 1 µM, first compound 0.01 µM) 1.16% | viability, T/C [11] 1.33% | viability, T/C [12] 1.04%

CC(C)NCC(C(=O)N1CCN(c2ncnc3c2C(C)CC3O)CC1)c1ccc(Cl)cc1 (centres undefined) + CC(Nc1ccc2c(c1)OCCn1cc(N3C(=O)OCC3C(F)F)nc1-2)C(N)=O
< 0.0316 µM: IC50 (second compound 0.316 µM) | IC50 (second compound 1 µM)
0.233 µM: IC50 (second compound 0.01 µM)
inactive: viability, T/C [1] 77.7% | viability, T/C [2] 68.9% | viability, T/C (second compound 0.00316 µM, first compound 0.316 µM) 45.2% | viability, T/C (second compound 0.00316 µM, first compound 1 µM) 27.8% | viability, T/C (second compound 0.00316 µM, first compound 3.16 µM) 10.2% | viability, T/C [3] 71.5% | viability, T/C [4] 65.8% | viability, T/C (second compound 0.01 µM, first compound 0.316 µM) 41.3% | viability, T/C (second compound 0.01 µM, first compound 1 µM) 30.3% | viability, T/C (second compound 0.01 µM, first compound 3.16 µM) 10.5% | viability, T/C [5] 53.3% | viability, T/C [6] 57.7% | viability, T/C (second compound 0.0316 µM, first compound 0.316 µM) 41.3% | viability, T/C (second compound 0.0316 µM, first compound 1 µM) 26.6% | viability, T/C (second compound 0.0316 µM, first compound 3.16 µM) 12.4% | viability, T/C [7] 52.1% | viability, T/C [8] 37.7% | viability, T/C (second compound 0.1 µM, first compound 0.316 µM) 31.4% | viability, T/C (second compound 0.1 µM, first compound 1 µM) 22.4% | viability, T/C (second compound 0.1 µM, first compound 3.16 µM) 11.2% | viability, T/C [9] 34.7% | viability, T/C [10] 28.8% | viability, T/C (second compound 0.316 µM, first compound 0.316 µM) 24.6% | viability, T/C (second compound 0.316 µM, first compound 1 µM) 20.6% | viability, T/C (second compound 0.316 µM, first compound 3.16 µM) 10.6% | viability, T/C [11] 26.2% | viability, T/C [12] 23.6% | viability, T/C (second compound 1 µM, first compound 0.316 µM) 23.4% | viability, T/C (second compound 1 µM, first compound 1 µM) 16.5% | viability, T/C (second compound 1 µM, first compound 3.16 µM) 8.21%
0.0358 µM: IC50 (second compound 0.1 µM)
0.149 µM: IC50 (second compound 0.0316 µM)
active: viability, T/C (second compound 0.00316 µM, first compound 10 µM) 9.8% | viability, T/C (second compound 0.01 µM, first compound 10 µM) 7.89% | viability, T/C (second compound 0.0316 µM, first compound 10 µM) 8.75% | viability, T/C (second compound 0.1 µM, first compound 10 µM) 6.81% | viability, T/C (second compound 0.316 µM, first compound 10 µM) 5.02% | viability, T/C (second compound 1 µM, first compound 10 µM) 5.34%
0.269 µM: IC50 (second compound 0.00316 µM)
